Experimental data taken from paper doi:10.1101/2025.04.25.650653, “Hierarchical small molecule inhibition of MYST acetyltransferases” (bioRxiv, 2025).
“And” between values parts separate entries of the source, which are not always exact repeats. Equal entries are not always repeated.

Legend:
H4K16Ac (KAT8) [1] = assay: Histone biomarker bottom-up LC-MS/MS, MCF-7; type: cell-based; settings: for Ratio, H4_4_17 K16ac: Replicates 1-3
H3K18Ac (KAT3A/B) = assay: Histone biomarker bottom-up LC-MS/MS, MCF-7; type: cell-based; settings: for Ratio, H3_18_26 K18ac: Replicates 1-3
H4K16Ac (KAT8) [2] = assay: MYST KAT biomarker western blot, BT-549; type: cell-based; settings: BT-549 cells, 24 h, near the GI50 dose
H3K9Ac (KAT2A/B) = assay: Histone biomarker bottom-up LC-MS/MS, MCF-7; type: cell-based; settings: for Ratio, H3_9_17 K9ac: Replicates 1-3
[3] = tested on: MYST KAT complexes (KAT7, KAT8, KAT5) in HeLa nuclear extracts; assay: Competitive chemoproteomic profiling (H3K14-CoA affinity capture) of native MYST complexes; type: binding
Protocol: Proteins belonging to multiple KAT complexes are characterized by distinct competition profiles.
The beads were washed three times
during the bead coating step.
hours with end-over-end mixing.
After magnetic separation for 3 minutes,
conditions, and both eluates were combined.
Membranes were probed with antibodies

H3K23Ac (KAT6A/B) = assay: Histone biomarker bottom-up LC-MS/MS, MCF-7; type: cell-based; settings: for Ratio, H3_18_26 K23ac: Replicates 1-3
Text: In this approach. […] Histones are then extracted from cell pellets and chemically derivatized with propionic anhydride, digested with trypsin, subjected to a second round of propionylation, and analyzed by LC-MS/MS. Measuring the relative intensity of modified versus unmodified forms of individual histone peptides enables simultaneous monitoring of multiple potential biomarkers of MYST inhibition. To minimize false positives, we focused on abundant and reproducible modifications (average stoichiometry of greater than 1% across triplicate samples, standard deviation less than or equal to the average measurement). To account for potential histone modification crosstalk, changes in both acetylated and methylated peptides were evaluated. 38 modified peptides passed this reproducible detection threshold including several established KAT biomarkers[41] including H3K9Ac (KAT2A/B), H3K18Ac (KAT3A/B), H3K14Ac (KAT7), H3K23Ac (KAT6A/B), H4K16Ac (KAT8), and H2A.ZK4/K7Ac (KAT5; Fig. 4B).
Genetic perturbations have unambiguously determined the dependence of H3K23Ac on KAT6A/B.[9], [41] The H3K23Ac biomarker critically complements chemoproteomics by allowing sensitive assessment of KAT6A and KAT6B activity, whose active site occupancy is otherwise difficult to assess. […] This is significant since several studies have used H3K9Ac as a proxy for KAT6A/B inhibition (Table S7),[8], [42] even though its regulation is most commonly attributed to KAT2A/B.[41] Since LC-MS/MS assays require specialized equipment and technical expertise, we also validated a panel of histone acetylation antibodies that recapitulate the dose-dependent inhibition of MYST targets by western blot (Fig. 4E). […]
nuclei were pelleted by centrifugation (600 rcf, 4°C, 5 min). Pelleted nuclei were washed twice with 150 μL of detergent-free NIB buffer, followed by centrifugation (600 rcf, 4°C, 5 min) to remove all detergent.
Nuclei were then resuspended in 400 μL of 0.4 N H₂SO₄ and rotated at 4°C overnight for acid extraction of histones. The following day, samples were centrifuged (11,000 rcf, 4°C, 10 min) and the histone-containing supernatant was transferred to a fresh tube. Trichloroacetic acid (100% TCA) was added to achieve a final concentration of 20% (v/v), tubes were inverted once to mix, and histone precipitation was performed on ice for at least 3 hours or overnight at 4°C. Precipitated histones were collected by centrifugation (11,000 rcf, 4°C, 10 min) and the supernatant carefully removed, leaving a visible film of histones on the tube wall or bottom. Histone pellets were subjected to sequential washes with 1 mL of ice-cold acidified acetone (0.1% 12 N HCl) followed by 1 mL of 100% ice-cold acetone, with centrifugation (11,000 rcf, 4°C, 5 min) after each wash. Samples were air-dried at room temperature, resuspended in 40 µL of ddH₂O, and protein […]
analysis, 1-2 µg of purified histones were loaded per lane and processed according to the general immunoblotting protocol described in General Materials and Methods.
Analysis of histone modifications by LC-MS/MS
Preparation of histone samples for LC-MS/MS was performed analogously to the procedure for immunoblotting above, with the following modifications. MCF7 cells (4.2 × 106) were seeded in 15 cm dishes and treated with PF-9363 or vehicle. Experiments were performed in triplicate. Following treatment and PBS washing, cells were scraped and collected in 15 mL falcon tubes, pelleted (500 rcf, 4°C, 5 min), resuspended in 1 mL cold PBS, transferred to microcentrifuge tubes, and pelleted again before flash-freezing in liquid nitrogen for storage at -80°C. For extraction, cell pellets (~100 μL) were resuspended in NIB buffer at a 1:10 ratio, and cells were lysed with NIB buffer containing 0.2% NP-40 for 8 minutes on ice. Nuclei were pelleted at 1,000 rcf for 8 minutes and washed three times with 500 μL detergent-free NIB

[4] = MCF-7 cells, 24 h, any concentration (0.1-30 μM)

SMILES: COc1cccc(OC)c1S(=O)(=O)Nc1noc2cc(Cn3cccn3)cc(OC)c12 [PF-9363]
- IC50 (H4K16Ac (KAT8) [1]; Homo sapiens, MCF7, MCF-7 cells, 24 h): ~10 µM
- Ratio, H4_4_17 K16ac (H4K16Ac (KAT8) [1]; KAT marker KAT8, PF-9363 0.1): 0.3188 and 0.3244 and 0.3222
- Ratio, H4_4_17 K16ac (H4K16Ac (KAT8) [1]; KAT marker KAT8, PF-9363 1): 0.2629 and 0.2802 and 0.2713
- Ratio, H4_4_17 K16ac (H4K16Ac (KAT8) [1]; KAT marker KAT8, PF-9363 10): 0.1497 and 0 and 0.16
- Ratio, H4_4_17 K16ac (H4K16Ac (KAT8) [1]; KAT marker KAT8, PF-9363 30): 0 (2×) and 0.08259
- Average ratio, H4_4_17 K16ac (H4K16Ac (KAT8) [1]; KAT marker KAT8, PF-9363 (0.1 mM)): 0.3218
- Average ratio, H4_4_17 K16ac (H4K16Ac (KAT8) [1]; KAT marker KAT8, PF-9363 (30 mM)): 0.0275
- Fold-change 0.1 v 30, H4_4_17 K16ac (H4K16Ac (KAT8) [1]; KAT marker KAT8, average ratio 0.1 v 30): 11.69
- Fold-change 0.1 v 30, H3_18_26 K18ac (H3K18Ac (KAT3A/B); KAT marker KAT3A/B, PF-9363 0.1 v 30): 1.39
- Average ratio, H3_18_26 K18ac (H3K18Ac (KAT3A/B); KAT marker KAT3A/B, PF-9363 (0.1 mM)): 0.0171
- Average ratio, H3_18_26 K18ac (H3K18Ac (KAT3A/B); KAT marker KAT3A/B, PF-9363 (30 mM)): 0.0123
- Ratio, H3_18_26 K18ac (H3K18Ac (KAT3A/B); KAT marker KAT3A/B, dose 0.1): 0.01666 and 0.01829 and 0.01641
- Ratio, H3_18_26 K18ac (H3K18Ac (KAT3A/B); KAT marker KAT3A/B, dose 1): 0.01874 and 0.01672 and 0.01619
- Ratio, H3_18_26 K18ac (H3K18Ac (KAT3A/B); KAT marker KAT3A/B, dose 10): 0.01831 and 0 and 0.01771
- Ratio, H3_18_26 K18ac (H3K18Ac (KAT3A/B); KAT marker KAT3A/B, dose 30): 0 and 0.0193 and 0.01765
- modulation of H3K18Ac (H3K18Ac (KAT3A/B); [4]): not found to modulate
- inhibition of KAT8 (H4K16Ac) (H4K16Ac (KAT8) [2]): near complete inhibiton
- Fold-change 0.1 v 30, H3_9_17 K9ac (H3K9Ac (KAT2A/B); KAT marker KAT2A/B, PF-9363 0.1 v 30): 1.55
- Average ratio, H3_9_17 K9ac (H3K9Ac (KAT2A/B); KAT marker KAT2A/B, PF-9363 (30 μM)): 0.0036
- Average ratio, H3_9_17 K9ac (H3K9Ac (KAT2A/B); KAT marker KAT2A/B, PF-9363 (0.1 mM)): 0.0056
- Ratio, H3_9_17 K9ac (H3K9Ac (KAT2A/B); KAT marker KAT2A/B, dose 0.1): 0.007813 and 0.000147 and 0.0089
- Ratio, H3_9_17 K9ac (H3K9Ac (KAT2A/B); KAT marker KAT2A/B, dose 1): 0.005499 and 0.002205 and 0.005001
- Ratio, H3_9_17 K9ac (H3K9Ac (KAT2A/B); KAT marker KAT2A/B, dose 10): 0.000496 and 0.002771 and 0.002815
- Ratio, H3_9_17 K9ac (H3K9Ac (KAT2A/B); KAT marker KAT2A/B, dose 30): 0.004671 and 0.003182 and 0.003055
- modulation of H3K9Ac (H3K9Ac (KAT2A/B); [4]): not found to modulate
- competition of capture of KAT8-containing MSL and NSL complexes and KAT5-containing NuA4 complex ([3]; 1 and 10 μM, HeLa nuclear extracts): competed capture of all CORUM-annotated members
- sensitivity of KAT complexes, general order ([3]; HeLa nuclear extracts, chemoproteomic competition): KAT7 > KAT8 > KAT5
- hierarchical inhibition order of native KAT complexes ([3]; chemoproteomic profiling and histone acetylation biomarkers): KAT6A/B > KAT7 >> KAT8 > KAT5
- reduction of H3K23Ac (H3K23Ac (KAT6A/B); 0.1 μM, 24 h, MCF-7 cells): ~ 80%
- Fold-change 0.1 v 30, H3_18_26 K23ac (H3K23Ac (KAT6A/B); KAT marker KAT6A/B, PF-9363 0.1 v 30): 7.11
- Average ratio, H3_18_26 K23ac (H3K23Ac (KAT6A/B); KAT marker KAT6A/B, PF-9363 (0.1 mM)): 0.0330
- Average ratio, H3_18_26 K23ac (H3K23Ac (KAT6A/B); KAT marker KAT6A/B, PF-9363 (30 mM)): 0.0046
- Ratio, H3_18_26 K23ac (H3K23Ac (KAT6A/B); KAT marker KAT6A/B, dose 0.1): 0.02851 and 0.03904 and 0.03134
- Ratio, H3_18_26 K23ac (H3K23Ac (KAT6A/B); KAT marker KAT6A/B, dose 1): 0.02199 and 0.02064 and 0.0179
- Ratio, H3_18_26 K23ac (H3K23Ac (KAT6A/B); KAT marker KAT6A/B, dose 10): 0.01047 and 0 and 0.009458
- Ratio, H3_18_26 K23ac (H3K23Ac (KAT6A/B); KAT marker KAT6A/B, dose 30): 0 and 0.006901 and 0.007012
